This note sets out measurements from patent US20080194585A1, “Fungicidal Pyrazine Derivatives” (priority 2005, published 2008).

Marks after values point to notes of the source that are not given here.

For one test, the system named is Pythium aphanidermatum. As to the kind of experiment: Test A: bluegrass pythium blight, preventive spray on bluegrass seedlings.
The test system of test [1] is Erysiphe graminis f. sp. tritici. As to the kind of experiment: Test L: wheat powdery mildew, preventive spray on wheat seedlings.
The next test has as its system Rhizoctonia oryzae. As to the kind of experiment: Test G: turf brown patch, preventive spray on creeping bent grass seedlings.
A further test has as its system Plasmopara viticola. As to the kind of experiment: Test D: grape downy mildew, spray after inoculation of grape seedlings. Format: in vivo. The source says: Upon removal, disease ratings were made. […] A dash (-) indicates no test results.
The subject of another test is Sclerotinia sclerotiorum. Description: Test C: cucumber white mold, preventive spray on cucumber seedlings.
The subject of the next test is Phytophthora infestans. Description: whole plant or invertebrate. Type of test: in vivo.
The test system of test [2] is Colletotrichum orbiculare. Description: Test B: cucumber Colletotrichum anthracnose, preventive spray on cucumber seedlings.
Another test has as its system Septoria nodorum. As to the kind of experiment: Test H: wheat glum blotch, preventive spray on wheat seedlings.
In the next test the test system is Septoria tritici. Description: Test J: wheat leaf blotch, preventive spray on wheat seedlings. Type of test: in vivo. An excerpt: A dash (-) indicates no test results.
In another test the test system is Botrytis cinerea. Description: Test E: tomato botrytis, preventive spray on tomato seedlings.
Test [3] relates to Puccinia recondita f. sp. tritici. As to the kind of experiment: Test K: wheat leaf rust, preventive spray on wheat seedlings.
Setting [4] is: 200 ppm, 100 = 100% disease control, 0 = no control.

Procedure for Rhizoctonia oryzae: (the causal agent of turf brown patch) and incubated in a saturated atmosphere at 27° C. for 24 h, and then moved to a growth chamber at 27° C. for 5 days, after which disease ratings were made.
Procedure for Septoria nodorum: (the causal agent of wheat glum blotch) and incubated in a saturated atmosphere at 20° C. for 48 h, and then moved to a growth chamber at 22° C. for 5 days, after which disease ratings were made.

As for `Cc1cccc(C)c1-c1c(Cl)nc(-n2cccn2)c(=O)n1CC(C)C` [compound 202], the “Test A disease control rating” value with Pythium aphanidermatum (200 ppm) is listed as 45%. The “Test L disease control rating” value in test [1] (200 ppm) was determined as 99%. Besides, the “Test G disease control rating” value in the test with Rhizoctonia oryzae (200 ppm) is reported as 99%. The “Test D disease control rating” value with Plasmopara viticola (200 ppm) worked out at 12%. The “Test C disease control rating” value in the test with Sclerotinia sclerotiorum (200 ppm) came out at 0%. In addition, in the test with Phytophthora infestans (200 ppm), the “Test F disease control rating” value was 0%. In addition, the “Test B disease control rating” value in [2] (200 ppm) was found to be 93%. The “Test H disease control rating” value with Septoria nodorum (200 ppm) is on record as 99%. Besides, the “Test J disease control rating” value in the test with Septoria tritici (200 ppm) came out at 100%. Besides, in the test on Botrytis cinerea (200 ppm), the “Test E disease control rating” value is listed as 100%. In addition, in test [3] (200 ppm), the “Test K disease control rating” value is recorded as 100%.
With `CC(CS(C)(=O)=O)n1c(-c2c(F)cccc2F)c(Cl)nc(-n2cncn2)c1=O` (stereo not drawn) [compound 201], in the test on Pythium aphanidermatum (40 ppm (*)), the “Test A disease control rating” value was 0* %. Also, in test [1] (40 ppm (*)), the “Test L disease control rating” value was 0* %. For the same compound, the “Test G disease control rating” value in the test with Rhizoctonia oryzae (40 ppm (*)) is listed as 0* %. Further, the “Test D disease control rating” value in the test with Plasmopara viticola (40 ppm (*)) is listed as 0* %. The “Test C disease control rating” value in the test with Sclerotinia sclerotiorum (40 ppm (*)) is on record as 0* %. For the same compound, the “Test F disease control rating” value in the test with Phytophthora infestans (40 ppm (*)) is listed as 0* %. The “Test B disease control rating” value in [2] (40 ppm (*)) is 0* %. Moreover, the “Test H disease control rating” value in the test with Septoria nodorum (40 ppm (*)) is 0* %. Besides, the “Test J disease control rating” value with Septoria tritici (40 ppm (*)) is reported as 0* %. Moreover, in the test on Botrytis cinerea (40 ppm (*)), the “Test E disease control rating” value is given as 0* %. In addition, in test [3] (40 ppm (*)), the “Test K disease control rating” value was 0* %.
With `CC(C)Cn1c(C(C)C)c(Cl)nc(-n2cccn2)c1=O` [compound 204], the “Test A disease control rating” value in the test with Pythium aphanidermatum (200 ppm) worked out at 0%. For the same compound, the “Test L disease control rating” value in test [1] (200 ppm) was 99%. Also, in the test on Rhizoctonia oryzae (200 ppm), the “Test G disease control rating” value was 95%. For the same compound, the “Test D disease control rating” value with Plasmopara viticola (200 ppm) was 12%. Besides, the “Test C disease control rating” value in the test on Sclerotinia sclerotiorum (200 ppm) was determined as 0%. In addition, the “Test F disease control rating” value in the test with Phytophthora infestans (200 ppm) was 0%. The “Test B disease control rating” value in test [2] (200 ppm) is on record as 0%. For the same compound, the “Test H disease control rating” value in the test with Septoria nodorum (200 ppm) was 0%. Besides, in the test with Septoria tritici (200 ppm), the “Test J disease control rating” value is reported as 90%. Further, the “Test E disease control rating” value in the test with Botrytis cinerea (200 ppm) stood at 98%. Further, the “Test K disease control rating” value in test [3] (200 ppm) was determined as 98%.
For `CC(C)Cn1c(-c2cc3c(cc2Cl)OCO3)c(Cl)nc(-n2cccn2)c1=O` [compound 253], the “Test A disease control rating” value in the test on Pythium aphanidermatum (setting [4]) is given as 0%. Further, the “Test L disease control rating” value in [1] (setting [4]) is recorded as 0%. Besides, the “Test G disease control rating” value in the test on Rhizoctonia oryzae (setting [4]) is listed as 0%. The “Test D disease control rating” value in the test with Plasmopara viticola (setting [4]) amounted to 0%. In the test with Sclerotinia sclerotiorum (setting [4]), the “Test C disease control rating” value worked out at 0%. The “Test F disease control rating” value in the test with Phytophthora infestans (setting [4]) was determined as 0%. The “Test B disease control rating” value in [2] (setting [4]) is reported as 0%. Besides, the “Test H disease control rating” value in the test on Septoria nodorum (setting [4]) is listed as 0%. In addition, the “Test J disease control rating” value with Septoria tritici (setting [4]) is listed as 66%. Moreover, the “Test E disease control rating” value in the test on Botrytis cinerea (setting [4]) was 0%. For the same compound, the “Test K disease control rating” value in [3] (setting [4]) was determined as 0%.
Regarding `CC(C)Cn1c(-c2ccc3c(c2)OC(F)(F)O3)c(Cl)nc(-n2cccn2)c1=O` [compound 252], the “Test A disease control rating” value in the test with Pythium aphanidermatum (setting [4]) is 0%. Besides, the “Test L disease control rating” value in [1] (setting [4]) came to 0%. Also, the “Test G disease control rating” value in the test on Rhizoctonia oryzae (setting [4]) is 0%. Also, the “Test D disease control rating” value in the test on Plasmopara viticola (setting [4]) is 0%. Also, in the test with Sclerotinia sclerotiorum (setting [4]), the “Test C disease control rating” value stood at 0%. The “Test F disease control rating” value in the test on Phytophthora infestans (setting [4]) was determined as 0%. In addition, in test [2] (setting [4]), the “Test B disease control rating” value was 0%. Further, the “Test H disease control rating” value in the test on Septoria nodorum (setting [4]) was 0%. The “Test J disease control rating” value with Septoria tritici (setting [4]) amounted to 53%. In addition, in the test on Botrytis cinerea (setting [4]), the “Test E disease control rating” value is 0%. Besides, the “Test K disease control rating” value in test [3] (setting [4]) stood at 0%.
Regarding `CCC(C)Cn1c(-c2ccc(F)cc2Cl)c(Cl)nc(-n2cccn2)c1=O` (stereo not drawn) [compound 164], the “Test A disease control rating” value with Pythium aphanidermatum (200 ppm) amounted to 0%. The “Test L disease control rating” value in test [1] (200 ppm) was found to be 100%. The “Test G disease control rating” value in the test with Rhizoctonia oryzae (200 ppm) was 74%. Also, the “Test D disease control rating” value in the test on Plasmopara viticola (200 ppm) came to 44%. Also, in the test with Sclerotinia sclerotiorum (200 ppm), the “Test C disease control rating” value was 91%. Also, the “Test F disease control rating” value with Phytophthora infestans (200 ppm) is 0%. In addition, the “Test B disease control rating” value in test [2] (200 ppm) amounted to 100%. In addition, in the test with Septoria nodorum (200 ppm), the “Test H disease control rating” value worked out at 100%. In addition, the “Test J disease control rating” value in the test on Septoria tritici (200 ppm) is 100%. Further, in the test with Botrytis cinerea (200 ppm), the “Test E disease control rating” value is recorded as 100%. In addition, in test [3] (200 ppm), the “Test K disease control rating” value is listed as 100%.
